IC50 and inhibition data for seven compounds are collected here from ChEMBL document CHEMBL1129962, “Nonsteroidal anti-inflammatory drugs as scaffolds for the design of 5-lipoxygenase inhibitors” (J Med Chem, 1997).

pIC50: −log10 of the molar value.

For experiment [1], the target named is T1, Polyunsaturated fatty acid 5-lipoxygenase (Rattus norvegicus, UniProt P12527).
T1 sequence (P12527 whole entry): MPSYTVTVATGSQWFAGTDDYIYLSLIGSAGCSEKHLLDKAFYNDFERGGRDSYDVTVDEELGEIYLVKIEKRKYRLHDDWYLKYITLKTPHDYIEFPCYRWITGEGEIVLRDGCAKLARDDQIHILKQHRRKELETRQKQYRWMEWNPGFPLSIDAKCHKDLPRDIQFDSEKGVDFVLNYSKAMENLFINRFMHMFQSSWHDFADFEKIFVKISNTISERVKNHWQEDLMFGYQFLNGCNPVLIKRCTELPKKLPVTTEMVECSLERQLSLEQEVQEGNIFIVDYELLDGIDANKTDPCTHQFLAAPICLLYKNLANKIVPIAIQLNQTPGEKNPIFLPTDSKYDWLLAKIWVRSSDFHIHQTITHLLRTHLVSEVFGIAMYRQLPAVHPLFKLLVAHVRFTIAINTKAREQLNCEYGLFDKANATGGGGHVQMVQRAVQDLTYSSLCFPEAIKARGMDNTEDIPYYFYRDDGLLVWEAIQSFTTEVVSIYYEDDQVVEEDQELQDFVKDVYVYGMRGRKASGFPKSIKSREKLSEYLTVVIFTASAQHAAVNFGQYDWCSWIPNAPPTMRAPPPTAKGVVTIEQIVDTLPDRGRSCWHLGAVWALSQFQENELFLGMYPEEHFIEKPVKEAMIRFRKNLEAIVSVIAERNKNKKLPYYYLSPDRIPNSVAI
Briefly: Inhibitory activity against 5-lipoxygenase catalysis (5-LO) in sonicated rat basophilic leukemia cell lysate. It counts as functional.

The target in experiment [2] is T2, Polyunsaturated fatty acid 5-lipoxygenase (Homo sapiens, UniProt P09917).
T2 sequence (P09917 whole entry): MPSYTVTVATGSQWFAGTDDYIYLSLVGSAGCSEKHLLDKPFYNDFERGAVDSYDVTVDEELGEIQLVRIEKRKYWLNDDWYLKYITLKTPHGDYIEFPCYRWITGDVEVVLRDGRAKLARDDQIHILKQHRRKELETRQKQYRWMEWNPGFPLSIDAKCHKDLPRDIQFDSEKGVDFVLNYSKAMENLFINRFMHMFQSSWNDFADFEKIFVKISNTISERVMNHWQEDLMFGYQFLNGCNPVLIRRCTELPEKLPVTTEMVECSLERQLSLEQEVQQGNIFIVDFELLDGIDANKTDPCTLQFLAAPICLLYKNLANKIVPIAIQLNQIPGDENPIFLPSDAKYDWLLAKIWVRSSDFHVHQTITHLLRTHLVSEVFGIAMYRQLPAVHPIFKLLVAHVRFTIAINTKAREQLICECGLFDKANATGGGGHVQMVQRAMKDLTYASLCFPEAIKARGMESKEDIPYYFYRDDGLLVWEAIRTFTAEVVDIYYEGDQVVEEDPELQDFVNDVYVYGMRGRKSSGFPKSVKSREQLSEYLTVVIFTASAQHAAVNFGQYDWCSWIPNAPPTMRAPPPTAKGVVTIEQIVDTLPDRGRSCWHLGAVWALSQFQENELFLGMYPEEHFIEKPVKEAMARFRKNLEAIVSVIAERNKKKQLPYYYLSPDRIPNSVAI
Briefly: Inhibitory activity against 5-lipoxygenase in Human whole blood (HWBL) stimulated with calcium ionophore (A23187) and LTB4 measured by enzyme immunoassay. It counts as functional, tissue-based.

For experiment [3], the target named is T3, Prostaglandin G/H synthase 2 (Homo sapiens) (UniProt P35354).
T3 sequence (whole entry): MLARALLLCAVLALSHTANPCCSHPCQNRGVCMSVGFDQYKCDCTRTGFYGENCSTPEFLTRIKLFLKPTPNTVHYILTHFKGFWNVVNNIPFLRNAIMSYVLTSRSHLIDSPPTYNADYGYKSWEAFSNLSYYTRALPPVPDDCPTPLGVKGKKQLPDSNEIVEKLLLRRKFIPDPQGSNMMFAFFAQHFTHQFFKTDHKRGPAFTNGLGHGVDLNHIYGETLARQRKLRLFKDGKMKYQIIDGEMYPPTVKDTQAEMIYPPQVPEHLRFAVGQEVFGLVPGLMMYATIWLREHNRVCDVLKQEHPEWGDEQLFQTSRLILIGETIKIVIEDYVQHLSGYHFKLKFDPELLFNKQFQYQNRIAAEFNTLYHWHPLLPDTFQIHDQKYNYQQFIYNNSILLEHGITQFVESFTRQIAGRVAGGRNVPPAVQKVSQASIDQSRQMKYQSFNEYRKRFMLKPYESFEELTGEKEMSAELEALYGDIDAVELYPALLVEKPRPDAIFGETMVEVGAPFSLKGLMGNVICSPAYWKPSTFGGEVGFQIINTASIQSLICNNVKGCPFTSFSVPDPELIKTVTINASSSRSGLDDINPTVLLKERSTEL
Briefly: Inhibition activity against recombinant human Prostaglandin G/H synthase 2. Also on record: concentration or dose not given beside the values. The following applies: concentration not given here.

In experiment [4] the target is Prostaglandin G/H synthase 1 (Homo sapiens) (UniProt P23219). Briefly: Inhibition activity against recombinant human Prostaglandin G/H synthase 1. Set-up: concentration or dose not given beside the values. Conditions: concentration not given here.
Prostaglandin G/H synthase 1 (Homo sapiens), sequence (P23219 whole entry): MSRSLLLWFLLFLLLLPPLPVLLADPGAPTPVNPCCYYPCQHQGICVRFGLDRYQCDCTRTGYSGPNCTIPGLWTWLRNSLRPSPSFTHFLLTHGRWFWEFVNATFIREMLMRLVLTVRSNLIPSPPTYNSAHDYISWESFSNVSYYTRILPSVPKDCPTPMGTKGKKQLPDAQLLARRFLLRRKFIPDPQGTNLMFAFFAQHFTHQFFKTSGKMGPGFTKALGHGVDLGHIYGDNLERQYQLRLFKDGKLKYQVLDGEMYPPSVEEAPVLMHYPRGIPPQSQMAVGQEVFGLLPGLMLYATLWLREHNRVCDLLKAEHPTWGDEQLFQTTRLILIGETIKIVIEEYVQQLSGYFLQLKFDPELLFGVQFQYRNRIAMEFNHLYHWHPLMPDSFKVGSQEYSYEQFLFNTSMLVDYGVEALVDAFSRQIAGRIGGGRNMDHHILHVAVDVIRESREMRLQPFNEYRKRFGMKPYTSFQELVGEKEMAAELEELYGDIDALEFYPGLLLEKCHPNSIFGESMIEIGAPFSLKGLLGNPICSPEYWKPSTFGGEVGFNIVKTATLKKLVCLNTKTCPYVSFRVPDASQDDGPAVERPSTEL

As for `CC(C)Cc1ccc(C(C)N(O)C(N)=O)cc1` (stereo not drawn), the pIC50 in experiment [1] is 6.22; in experiment [2], 5.60. Further, the values for the inhibition in experiment [3] and in experiment [4] were 0% and 37%, respectively.

On to `COc1ccc2c(c1)c(CNC(=O)N(C)O)c(C)n2C(=O)c1ccc(Cl)cc1`, for which the values for the negative-log IC50 (pIC50) in experiment [1] and in experiment [2] were 6.70 and 6.00, respectively. Besides, the results for the inhibition in experiment [3] and in experiment [4] were 88% and 64%, respectively.

Regarding `COc1ccc2cc([C@H](C)N(O)C(N)=O)ccc2c1`, the results for the negative-log IC50 (pIC50) in experiment [1] and in experiment [2] were 6.40 and 5.80, respectively. Besides, the inhibition in experiment [3] and in experiment [4] was 0% in each case.

On to `COc1ccc2cc([C@H](C)NC(=O)NO)ccc2c1`, for which, in experiment [2], the pIC50 was 5.15. Besides, the figures for the inhibition in experiment [3] and in experiment [4] were 2% and 0%, respectively.

`CC(C)Cc1ccc(C(C)NC(=O)NO)cc1` (stereo not drawn): the pIC50 in experiment [2] is 4.64. Also, the inhibition in experiment [3] turned out to be 0%; in experiment [4] it was 51%.

Take `CC(c1cc2ccccc2s1)N(O)C(N)=O` (stereo not drawn): the inhibition in experiment [3] and in experiment [4] was 0% throughout.

Consider `COc1ccc2c(c1)c(CCN(O)C(N)=O)c(C)n2C(=O)c1ccc(Cl)cc1`, for which, in experiment [2], the pIC50 was 5.21. The inhibition in experiment [3] came to 48%; in experiment [4], 9%.
